Source: patent publication US10040781B2, “Tank-binding kinase inhibitor compounds” (Gilead Sciences, Inc., priority 2014, dated 2018)
Read-outs that look alike come from different tables or passages of the source.

How the values were obtained:
[1] = molecular target: TBK1 (Homo sapiens (Human), UniProt Q9UHD2); test: TBK1 TR-FRET enzymatic assay;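 note: phosphorylation of a biotinylated Ser/Thr peptide by purified full-length recombinant TBK1, read by TR-FRET after 240 min at 25 °C, IC50 is the geometric mean of at least four runs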
[2] = molecular target: hJAK2 (Homo sapiens (Human), UniProt O60674); test: hJAK2 LANCE TR-FRET enzymatic assay; type: biochemical; conditions: read-out: JAK2 IC50
[3] = molecular target: IKKε (Homo sapiens (Human), UniProt Q14164); test: IKKε TR-FRET enzymatic assay; type: biochemical; conditions: read-out: IKKe IC50
[4] = TR-FRET, 2×Km ATP, geometric mean of minimum four determinations

Sequence of TBK1 (Q9UHD2 whole entry): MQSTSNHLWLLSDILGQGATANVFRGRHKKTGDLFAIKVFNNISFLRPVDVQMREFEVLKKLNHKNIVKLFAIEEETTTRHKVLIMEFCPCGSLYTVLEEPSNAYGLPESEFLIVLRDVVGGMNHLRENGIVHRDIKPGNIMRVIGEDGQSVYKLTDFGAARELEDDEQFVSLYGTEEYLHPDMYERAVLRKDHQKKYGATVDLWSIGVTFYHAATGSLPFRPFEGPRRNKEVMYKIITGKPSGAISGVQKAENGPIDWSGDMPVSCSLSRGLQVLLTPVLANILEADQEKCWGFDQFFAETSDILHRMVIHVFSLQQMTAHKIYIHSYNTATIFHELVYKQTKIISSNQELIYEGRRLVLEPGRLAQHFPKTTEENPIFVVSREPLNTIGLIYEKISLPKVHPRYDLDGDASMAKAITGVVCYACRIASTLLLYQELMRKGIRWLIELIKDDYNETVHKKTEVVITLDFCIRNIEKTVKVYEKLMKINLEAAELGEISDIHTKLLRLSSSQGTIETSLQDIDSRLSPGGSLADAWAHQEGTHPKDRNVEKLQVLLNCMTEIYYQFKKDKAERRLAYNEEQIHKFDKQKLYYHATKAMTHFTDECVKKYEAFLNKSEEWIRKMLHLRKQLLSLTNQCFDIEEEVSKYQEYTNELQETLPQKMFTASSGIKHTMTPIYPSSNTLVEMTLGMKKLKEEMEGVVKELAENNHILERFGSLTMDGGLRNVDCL
Sequence of hJAK2 (O60674 whole entry): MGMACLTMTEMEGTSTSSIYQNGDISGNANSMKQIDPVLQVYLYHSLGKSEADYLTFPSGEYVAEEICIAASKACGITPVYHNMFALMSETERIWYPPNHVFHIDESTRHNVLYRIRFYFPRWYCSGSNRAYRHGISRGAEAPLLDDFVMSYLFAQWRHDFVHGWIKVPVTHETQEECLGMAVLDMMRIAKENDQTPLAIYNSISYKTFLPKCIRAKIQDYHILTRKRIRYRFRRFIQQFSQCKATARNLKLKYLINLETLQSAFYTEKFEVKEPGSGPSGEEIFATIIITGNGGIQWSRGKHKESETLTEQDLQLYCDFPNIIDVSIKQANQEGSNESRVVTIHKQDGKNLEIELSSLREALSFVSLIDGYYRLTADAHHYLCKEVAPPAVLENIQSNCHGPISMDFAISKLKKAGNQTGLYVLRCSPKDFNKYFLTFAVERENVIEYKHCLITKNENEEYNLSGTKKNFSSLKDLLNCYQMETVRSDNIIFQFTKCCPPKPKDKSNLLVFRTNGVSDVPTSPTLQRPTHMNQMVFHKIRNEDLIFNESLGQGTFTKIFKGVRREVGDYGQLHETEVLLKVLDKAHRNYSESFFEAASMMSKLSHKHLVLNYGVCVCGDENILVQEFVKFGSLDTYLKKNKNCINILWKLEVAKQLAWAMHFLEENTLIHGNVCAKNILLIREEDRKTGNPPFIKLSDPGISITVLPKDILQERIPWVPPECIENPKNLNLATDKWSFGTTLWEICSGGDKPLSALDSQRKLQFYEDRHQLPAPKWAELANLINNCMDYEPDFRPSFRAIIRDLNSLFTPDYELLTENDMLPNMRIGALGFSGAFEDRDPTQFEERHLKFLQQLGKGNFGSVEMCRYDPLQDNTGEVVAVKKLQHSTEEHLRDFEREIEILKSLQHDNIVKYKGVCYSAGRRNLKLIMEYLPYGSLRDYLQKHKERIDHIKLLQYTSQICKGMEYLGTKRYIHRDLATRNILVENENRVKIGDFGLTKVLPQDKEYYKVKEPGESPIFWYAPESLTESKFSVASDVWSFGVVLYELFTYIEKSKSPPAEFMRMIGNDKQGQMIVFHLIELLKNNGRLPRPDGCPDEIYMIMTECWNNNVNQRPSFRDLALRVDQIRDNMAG
Sequence of IKKε (Q14164 whole entry): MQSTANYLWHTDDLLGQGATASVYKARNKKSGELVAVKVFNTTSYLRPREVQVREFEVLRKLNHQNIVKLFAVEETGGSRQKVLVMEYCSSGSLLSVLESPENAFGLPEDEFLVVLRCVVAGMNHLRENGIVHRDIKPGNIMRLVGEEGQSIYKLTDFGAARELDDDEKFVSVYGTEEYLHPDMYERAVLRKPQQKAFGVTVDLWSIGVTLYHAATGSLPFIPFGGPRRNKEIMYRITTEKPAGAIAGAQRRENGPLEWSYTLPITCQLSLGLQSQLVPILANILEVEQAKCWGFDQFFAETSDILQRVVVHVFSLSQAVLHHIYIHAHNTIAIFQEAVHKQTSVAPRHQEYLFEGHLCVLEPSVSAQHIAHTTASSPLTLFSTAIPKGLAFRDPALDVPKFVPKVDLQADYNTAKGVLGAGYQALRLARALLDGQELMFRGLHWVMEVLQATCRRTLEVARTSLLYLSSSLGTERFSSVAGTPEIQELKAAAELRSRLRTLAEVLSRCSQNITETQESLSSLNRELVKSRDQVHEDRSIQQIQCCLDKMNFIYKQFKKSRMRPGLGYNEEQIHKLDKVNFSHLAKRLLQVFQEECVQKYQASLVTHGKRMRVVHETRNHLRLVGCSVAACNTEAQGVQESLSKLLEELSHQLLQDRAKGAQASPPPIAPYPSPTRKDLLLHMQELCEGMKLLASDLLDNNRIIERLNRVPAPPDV

Structure (SMILES) | IC50 [1] | IC50 [2] | IC50 [3, 4] | IC50 [3]
N#Cc1cc(-c2ncnc(Nc3ccc(N4CCN(C5COC5)CC4)cc3)n2)ccc1O[C@H]1CCN(C(=O)[C@@H](O)CO)C[C@H]1F [Example 584, 2-(((3R,4S)-1-((S)-2,3-dihydroxypropanoyl)-3-fluoropiperidin-4-yl)oxy)-5-(4-((4-(4-(oxetan-3-yl)piperazin-1-yl)phenyl)amino)-1,3,5-triazin-2-yl)benzonitrile] | 2 nM | 433 nM | 1 nM | 
N#Cc1cc(-c2ncnc(Nc3ccc(N4CCN(C5COC5)CC4)cc3)n2)ccc1O[C@H]1CCN(C(=O)[C@H](O)CO)C[C@H]1F [Example 585, 2-(((3R,4S)-1-((R)-2,3-dihydroxypropanoyl)-3-fluoropiperidin-4-yl)oxy)-5-(4-((4-(4-(oxetan-3-yl)piperazin-1-yl)phenyl)amino)-1,3,5-triazin-2-yl)benzonitrile] | 2 nM | 294 nM | 3 nM | 
CC(C#N)C(=O)N1CC[C@H](Oc2ccc(-c3ncnc(Nc4ccc(N5CCN(C6COC6)CC5)cc4)n3)cc2C#N)[C@H](F)C1 (stereo partly drawn) [Example 586, 2-(((3R,4S)-1-(2-cyanopropanoyl)-3-fluoropiperidin-4-yl)oxy)-5-(4-((4-(4-(oxetan-3-yl)piperazin-1-yl)phenyl)amino)-1,3,5-triazin-2-yl)benzonitrile] | 11 nM | 212 nM | 28 nM | 
N#Cc1cc(-c2ncnc(Nc3ccc(N4CCN(C5COC5)CC4)cc3)n2)ccc1O[C@H]1CCN(C(=O)C2(C#N)CC2)C[C@H]1F [Example 587, 2-(((3R,4S)-1-(1-cyanocyclopropanecarbonyl)-3-fluoropiperidin-4-yl)oxy)-5-(4-((4-(4-(oxetan-3-yl)piperazin-1-yl)phenyl)amino)-1,3,5-triazin-2-yl)benzonitrile] | 30 nM | 235 nM | 49 nM | 
N#Cc1cc(-c2ncnc(Nc3ccc(N4CCN(C5COC5)CC4)cc3)n2)ccc1O[C@H]1CCN(C(=O)[C@@H]2C[C@H](O)CN2)C[C@H]1F [Example 588, 2-(((3R,4S)-3-fluoro-1-((2S,4S)-4-hydroxypyrrolidine-2-carbonyl)piperidin-4-yl)oxy)-5-(4-((4-(4-(oxetan-3-yl)piperazin-1-yl)phenyl)amino)-1,3,5-triazin-2-yl)benzonitrile] | 18 nM | ≥ 1000 nM | 49 nM | 
N#Cc1cc(-c2ncnc(Nc3ccc(N4CCN(C5COC5)CC4)cc3)n2)ccc1O[C@H]1CCN(C(=O)[C@@H]2C[C@@H](O)CN2)C[C@H]1F [Example 589, 2-(((3R,4S)-3-fluoro-1-((2S,4R)-4-hydroxypyrrolidine-2-carbonyl)piperidin-4-yl)oxy)-5-(4-((4-(4-(oxetan-3-yl)piperazin-1-yl)phenyl)amino)-1,3,5-triazin-2-yl)benzonitrile] | 18 nM | 855 nM | 28 nM | 
C[C@H](O)C(=O)N1CC[C@H](COc2cc(C#N)cc(-c3ncnc(Nc4ccc(N5CCN(C6COC6)CC5)cc4)n3)c2)C1 [Example 590, 3-(((S)-1-((S)-2-hydroxypropanoyl)pyrrolidin-3-yl)methoxy)-5-(4-((4-(4-(oxetan-3-yl)piperazin-1-yl)phenyl)amino)-1,3,5-triazin-2-yl)benzonitrile] | 528 nM | ≥ 1000 nM | ≥ 1000 nM | 
N#Cc1cc(OC[C@H]2CCN(C(=O)CO)C2)cc(-c2ncnc(Nc3ccc(N4CCN(C5COC5)CC4)cc3)n2)c1 [Example 591, (S)-3-((1-(2-hydroxyacetyl)pyrrolidin-3-yl)methoxy)-5-(4-((4-(4-(oxetan-3-yl)piperazin-1-yl)phenyl)amino)-1,3,5-triazin-2-yl)benzonitrile] | 474 nM | 658 nM | ≥ 1000 nM | 
N#Cc1cc(-c2ncnc(Nc3ccc(N4CCN(C5COC5)CC4)cc3)n2)ccc1OCCn1ccnc1 [Example 592, 2-(2-(1H-imidazol-1-yl)ethoxy)-5-(4-((4-(4-(oxetan-3-yl)piperazin-1-yl)phenyl)amino)-1,3,5-triazin-2-yl)benzonitrile] | 21 nM | 239 nM | 23 nM | 
Cn1ccc(C(=O)N2CCC(COc3ccc(-c4ncnc(Nc5ccc(N6CCN(C7COC7)CC6)cc5)n4)cc3C#N)CC2)cc1=O [Example 593, 2-((1-(1-methyl-2-oxo-1,2-dihydropyridine-4-carbonyl)piperidin-4-yl)methoxy)-5-(4-((4-(4-(oxetan-3-yl)piperazin-1-yl)phenyl)amino)-1,3,5-triazin-2-yl)benzonitrile] | 452 nM | ≥ 1000 nM | 660 nM | 
N#Cc1cc(-c2ncnc(Nc3ccc(N4CCN(C5COC5)CC4)cc3)n2)ccc1OCC1CCC(=O)N1 (stereo not drawn) [Example 594, 5-(4-((4-(4-(oxetan-3-yl)piperazin-1-yl)phenyl)amino)-1,3,5-triazin-2-yl)-2-((5-oxopyrrolidin-2-yl)methoxy)benzonitrile] | 169 nM | ≥ 1000 nM | 232 nM | 
Cn1ccc(C(=O)N2CCC(Oc3ccc(-c4ncnc(Nc5ccc(N6CCN(C7COC7)CC6)cc5)n4)cc3C#N)CC2)cc1=O [Example 595, 2-((1-(1-methyl-2-oxo-1,2-dihydropyridine-4-carbonyl)piperidin-4-yl)oxy)-5-(4-((4-(4-(oxetan-3-yl)piperazin-1-yl)phenyl)amino)-1,3,5-triazin-2-yl)benzonitrile] | 69 nM | ≥ 1000 nM | 89 nM | 
CN1CCC(COc2ccc(-c3ncnc(Nc4ccc(N5CCN(C6COC6)CC5)cc4)n3)cc2C#N)CC1=O (stereo not drawn) [Example 596, 2-((1-methyl-2-oxopiperidin-4-yl)methoxy)-5-(4-((4-(4-(oxetan-3-yl)piperazin-1-yl)phenyl)amino)-1,3,5-triazin-2-yl)benzonitrile] | 264 nM | ≥ 1000 nM | 403 nM | 
N#Cc1cc(-c2ncnc(Nc3ccc(N4CCN(C5COC5)CC4)cc3)n2)ccc1OCCC1CNC(=O)C1 (stereo not drawn) [Example 597, 5-(4-((4-(4-(oxetan-3-yl)piperazin-1-yl)phenyl)amino)-1,3,5-triazin-2-yl)-2-(2-(5-oxopyrrolidin-3-yl)ethoxy)benzonitrile] | 95 nM | ≥ 1000 nM | 131 nM | 
N#Cc1cc(-c2ncnc(Nc3ccc(N4CCN(C5COC5)CC4)cc3)n2)ccc1OCCNC(=O)c1cccnc1 [Example 598, N-(2-(2-cyano-4-(4-((4-(4-(oxetan-3-yl)piperazin-1-yl)phenyl)amino)-1,3,5-triazin-2-yl)phenoxy)ethyl)nicotinamide] | 267 nM | 521 nM | 720 nM | 
N#Cc1cc(-c2ncnc(Nc3ccc(N4CCN(C5COC5)CC4)cc3)n2)ccc1OCCc1cnc2ncnn2c1 [Example 599] | 37 nM | 510 nM |  | 176 nM
COCCN1CC(COc2ccc(-c3ncnc(Nc4ccc(N5CCN(C6COC6)CC5)cc4)n3)cc2C#N)CC1=O (stereo not drawn) [Example 601, 2-((1-(2-methoxyethyl)-5-oxopyrrolidin-3-yl)methoxy)-5-(4-((4-(4-(oxetan-3-yl)piperazin-1-yl)phenyl)amino)-1,3,5-triazin-2-yl)benzonitrile] | 1000 nM | ≥ 1000 nM |  | ≥ 1000 nM
N#Cc1cc(-c2ncnc(Nc3ccc(N4CCN(C5COC5)CC4)cc3)n2)ccc1OCCNC(N)=O [Example 602, 1-(2-(2-cyano-4-(4-((4-(4-(oxetan-3-yl)piperazin-1-yl)phenyl)amino)-1,3,5-triazin-2-yl)phenoxy)ethyl)urea] | 126 nM | ≥ 1000 nM |  | 619 nM
N#Cc1cc(-c2ncnc(Nc3ccc(N4CCN(C5COC5)CC4)cc3)n2)ccc1OCC1CCNC(=O)C1 (stereo not drawn) [Example 604, 5-(4-((4-(4-(oxetan-3-yl)piperazin-1-yl)phenyl)amino)-1,3,5-triazin-2-yl)-2-((2-oxopiperidin-4-yl)methoxy)benzonitrile] | 28 nM | 950 nM |  | 37 nM
N#Cc1cc(-c2ncnc(Nc3ccc(N4CCN(C5COC5)CC4)cc3)n2)ccc1OCCN1CCN(C(N)=O)CC1 [Example 606, 4-(2-(2-cyano-4-(4-((4-(4-(oxetan-3-yl)piperazin-1-yl)phenyl)amino)-1,3,5-triazin-2-yl)phenoxy)ethyl)piperazine-1-carboxamide] | 503 nM | ≥ 1000 nM |  | 494 nM
N#Cc1cc(-c2ncnc(Nc3ccc(N4CCN(C5COC5)CC4)cc3)n2)ccc1OCC1CNC(=O)O1 (stereo not drawn) [Example 607, 5-(4-((4-(4-(oxetan-3-yl)piperazin-1-yl)phenyl)amino)-1,3,5-triazin-2-yl)-2-((2-oxooxazolidin-5-yl)methoxy)benzonitrile] | 21 nM | 161 nM |  | 16 nM
N#Cc1cc(-c2ncnc(Nc3ccc(N4CCN(C5COC5)CC4)cc3)n2)ccc1OCCN1CCNC(=O)C1 [Example 608, 5-(4-((4-(4-(oxetan-3-yl)piperazin-1-yl)phenyl)amino)-1,3,5-triazin-2-yl)-2-(2-(3-oxopiperazin-1-yl)ethoxy)benzonitrile] | 662 nM | ≥ 1000 nM |  | ≥ 1000 nM
Cc1cc(C)n(CCOc2ccc(-c3ncnc(Nc4ccc(N5CCN(C6COC6)CC5)cc4)n3)cc2C#N)n1 [Example 609, 2-(2-(3,5-dimethyl-1H-pyrazol-1-yl)ethoxy)-5-(4-((4-(4-(oxetan-3-yl)piperazin-1-yl)phenyl)amino)-1,3,5-triazin-2-yl)benzonitrile] | 1000 nM | 237 nM |  | ≥ 1000 nM
N#Cc1cc(-c2ncnc(Nc3ccc(N4CCN(C5COC5)CC4)cc3)n2)ccc1O[C@H]1CCN(c2cccnc2)C[C@H]1F [Example 611, 2-(((3R,4S)-3-fluoro-1-(pyridin-3-yl)piperidin-4-yl)oxy)-5-(4-((4-(4-(oxetan-3-yl)piperazin-1-yl)phenyl)amino)-1,3,5-triazin-2-yl)benzonitrile] | 1000 nM | ≥ 1000 nM |  | ≥ 1000 nM
